Assay [1] concerns the target T1, D(2) dopamine receptor (Homo sapiens, UniProt P14416). As to the kind of experiment: Partial agonist activity at D2L receptor in human HTLA cells assessed as beta arrestin recruitment at 6 uM after 18 hrs by luminescence assay. In kind it is functional, cell-based. In general terms: Arrestin recruitment assays detect the binding of arrestin to an activated receptor.

The target in assay [2] is T1, D(2) dopamine receptor. The experiment in a line: Agonist activity at human D2L receptor expressed in HEK293T cells coexpressing Gi subunit assessed as inhibition of isoproterenol-stimulated cAMP production by luminescence assay. In kind it is functional, cell-based, HEK-293T. Particulars: for EC50: hek-293t; for pEC50: read-out: EC50.
In assay [3] the target is T1, D(2) dopamine receptor. The experiment in a line: Agonist activity at D2L receptor in human HTLA cells assessed as beta arrestin recruitment at 6 uM after 18 hrs by luminescence assay. It is filed as functional, cell-based.
Assay [4] addresses T1, D(2) dopamine receptor. The experiment in a line: Displacement of [3H]N-methylspiperone from human D2L receptor expressed in CHO cells after 1.5 hrs by microbeta counting method. In kind it is cell-based. For orientation: In a radioligand displacement assay an active substance lowers the binding of a labelled ligand.
Assay [5] has as its target T1, D(2) dopamine receptor. Particulars: HTLA, 6 uM.
Description: Partial agonist activity at D2L receptor in human HTLA cells assessed as beta arrestin recruitment at 6 uM after 18 hrs by luminescence assay relative to Quinpirole
Assay [6] deals with T1, D(2) dopamine receptor. The settings on record: HTLA, at 6 µM.
Description: Agonist activity at D2L receptor in human HTLA cells assessed as beta arrestin recruitment at 6 uM after 18 hrs by luminescence assay relative to Quinpirole
Assay [7] relates to Mus musculus. As to the kind of experiment: Antipsychotic-like activity in beta- arrestin-2 knockout mouse assessed as inhibition of PCP-induced hyperlocomotion at 2 mg/kg, ip administered 30 min prior to PCP challenge measured after 90 min. It is filed as functional, organism-based. Also noted: dose 2 mg/kg.
Assay [8] relates to Mus musculus. The experiment in a line: Antipsychotic-like activity in wild type mouse assessed as inhibition of PCP-induced hyperlocomotion at 2 mg/kg, ip administered 30 min prior to PCP challenge measured after 90 min. In kind it is functional, organism-based. Also noted: dose 2 mg/kg.
For assay [9], the target named is D(1B) dopamine receptor (Homo sapiens) (UniProt P21918). As to the kind of experiment: Binding affinity to D5 receptor.
Assay [10] addresses D(1A) dopamine receptor (Homo sapiens) (UniProt P21728). The experiment in a line: Binding affinity to D1 receptor.
The target in assay [11] is D(3) dopamine receptor (Homo sapiens) (UniProt P35462). As to the kind of experiment: Binding affinity to D3 receptor.
Assay [12] addresses T2, D(4) dopamine receptor (Homo sapiens) (UniProt P21917).
T2 sequence (whole entry): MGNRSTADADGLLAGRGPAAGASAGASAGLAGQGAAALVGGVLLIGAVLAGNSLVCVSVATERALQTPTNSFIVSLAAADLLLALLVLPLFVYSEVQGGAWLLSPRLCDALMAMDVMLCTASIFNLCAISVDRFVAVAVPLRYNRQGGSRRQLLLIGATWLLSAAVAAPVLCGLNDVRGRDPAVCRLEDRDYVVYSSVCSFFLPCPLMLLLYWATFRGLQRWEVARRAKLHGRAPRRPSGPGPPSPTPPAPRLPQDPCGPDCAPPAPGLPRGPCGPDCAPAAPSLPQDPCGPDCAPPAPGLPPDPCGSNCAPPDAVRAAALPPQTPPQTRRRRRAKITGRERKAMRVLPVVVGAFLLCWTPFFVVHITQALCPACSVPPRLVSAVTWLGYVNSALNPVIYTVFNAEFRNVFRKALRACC
As to the kind of experiment: Binding affinity to D4 receptor.

pEC50, pKi: −log10 of the molar value. Active and inactive are the calls of the source. The calls are words filed in the database; no cut-off is given here.

T1 sequence (P14416 whole entry): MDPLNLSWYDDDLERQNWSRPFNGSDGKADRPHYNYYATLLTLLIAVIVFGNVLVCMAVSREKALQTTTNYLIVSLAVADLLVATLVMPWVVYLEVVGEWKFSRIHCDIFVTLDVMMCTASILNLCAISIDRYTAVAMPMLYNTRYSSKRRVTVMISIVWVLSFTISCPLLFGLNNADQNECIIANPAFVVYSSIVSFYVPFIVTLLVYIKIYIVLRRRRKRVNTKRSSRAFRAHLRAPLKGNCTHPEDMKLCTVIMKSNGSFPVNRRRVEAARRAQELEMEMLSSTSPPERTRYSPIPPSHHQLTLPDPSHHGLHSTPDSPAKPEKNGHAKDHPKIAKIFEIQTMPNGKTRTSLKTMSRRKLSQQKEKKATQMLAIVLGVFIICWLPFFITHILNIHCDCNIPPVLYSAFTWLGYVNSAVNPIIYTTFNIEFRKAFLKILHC
Sequence of D(1A) dopamine receptor (Homo sapiens) (P21728 whole entry): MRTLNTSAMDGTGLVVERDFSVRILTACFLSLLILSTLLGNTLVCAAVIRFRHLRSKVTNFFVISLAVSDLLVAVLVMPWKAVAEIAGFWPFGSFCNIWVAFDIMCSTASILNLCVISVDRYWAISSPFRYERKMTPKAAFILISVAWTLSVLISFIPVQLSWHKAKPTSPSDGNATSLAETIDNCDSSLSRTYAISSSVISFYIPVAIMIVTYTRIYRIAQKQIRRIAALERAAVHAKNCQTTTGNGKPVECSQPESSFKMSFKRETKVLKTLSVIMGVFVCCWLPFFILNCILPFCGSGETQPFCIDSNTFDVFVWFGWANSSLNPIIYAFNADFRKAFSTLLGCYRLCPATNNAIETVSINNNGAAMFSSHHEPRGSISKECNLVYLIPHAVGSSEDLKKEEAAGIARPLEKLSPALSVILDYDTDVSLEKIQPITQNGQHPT
Sequence of D(1B) dopamine receptor (Homo sapiens) (P21918 whole entry): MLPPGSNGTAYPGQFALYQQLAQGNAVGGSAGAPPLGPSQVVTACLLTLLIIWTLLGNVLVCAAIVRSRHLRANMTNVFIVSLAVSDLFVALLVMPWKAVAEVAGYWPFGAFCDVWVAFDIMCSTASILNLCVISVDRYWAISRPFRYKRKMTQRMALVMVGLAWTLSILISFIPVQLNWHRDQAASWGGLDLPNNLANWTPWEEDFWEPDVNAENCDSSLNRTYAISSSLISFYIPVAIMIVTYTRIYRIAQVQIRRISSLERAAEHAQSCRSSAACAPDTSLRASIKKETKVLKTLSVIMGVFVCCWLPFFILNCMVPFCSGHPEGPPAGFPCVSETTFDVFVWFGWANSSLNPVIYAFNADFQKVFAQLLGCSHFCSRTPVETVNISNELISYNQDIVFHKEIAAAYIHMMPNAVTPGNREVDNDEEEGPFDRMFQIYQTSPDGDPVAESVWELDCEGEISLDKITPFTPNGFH
Sequence of D(3) dopamine receptor (Homo sapiens) (P35462 whole entry): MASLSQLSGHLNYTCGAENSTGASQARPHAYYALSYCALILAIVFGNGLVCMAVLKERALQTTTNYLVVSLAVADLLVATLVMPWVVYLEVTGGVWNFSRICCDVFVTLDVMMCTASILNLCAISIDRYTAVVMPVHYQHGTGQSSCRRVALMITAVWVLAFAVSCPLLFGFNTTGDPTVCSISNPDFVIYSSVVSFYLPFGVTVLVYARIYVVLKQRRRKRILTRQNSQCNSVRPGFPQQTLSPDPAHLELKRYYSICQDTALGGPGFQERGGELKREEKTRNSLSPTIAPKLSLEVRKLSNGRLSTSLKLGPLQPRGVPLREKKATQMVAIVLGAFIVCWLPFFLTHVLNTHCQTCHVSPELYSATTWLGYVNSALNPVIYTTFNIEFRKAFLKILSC

For `O=C1CCc2ccc(Oc3cccc(CN4CCN(c5cccc(Cl)c5Cl)CC4)c3)cc2N1`, in [1], the negative-log EC50 (pEC50) (in general, the negative decadic logarithm of the EC50, by convention in mol/L) is 6.50. In addition, the EC50 result in assay [2] is on record as “Not Active”.
Regarding `O=C1NCCc2ccc(OCCCN3CCCN(c4cccc(Cl)c4Cl)CC3)cc21`, the negative-log EC50 (pEC50) in assay [3] was 8.20. The EC50 entry in assay [2] is reported as “Not Active”.
Taken in the same sequence, the figures for `O=C1NCCc2ccc(OCCCN3CCN(c4cccc(Cl)c4Cl)CC3)cc21` were 7.70 and “Not Active”.
Turning to `O=C1CCc2ccc(OC[C@H]3CC[C@H](CN4CCN(c5cccc(Cl)c5Cl)CC4)CC3)cc2N1`, the negative logarithm of the EC50 (pEC50) in assay [1] was 5.80. In addition, the EC50 entry in assay [2] was “Not Active”. In addition, the pKi (in general, the negative decadic logarithm of the Ki, by convention in mol/L) in assay [4] is 6.84. The Emax – broadly, the size of the effect at its maximum, as opposed to the concentration needed – in [5] came to 45%.
As to `Clc1cccc(N2CCCN(CCCOc3ccc4scnc4c3)CC2)c1Cl`, the maximal response (Emax) in assay [6] was 71%.
Take `Clc1cccc(N2CCN(CCCOc3ccc4cn[nH]c4c3)CC2)c1Cl`: the pEC50 in assay [3] was 6.70. In assay [2], the EC50 entry is reported as “Not Active”.
For the molecule `O=C1CCc2ccc(OCCCCN3CCCN(c4cccc(Cl)c4Cl)CC3)cc2N1`, the inhibition result in assay [7] is “inactive”. In [8], the inhibition result is “Active”. Moreover, the outcome in assay [9] and in assay [10] was inactive.
Take `O=C1NCCc2ccc(OCCCCN3CCN(c4cccc(Cl)c4Cl)CC3)cc21`: in assay [1], the negative-log EC50 (pEC50) is 8.40. In addition, the EC50 entry in [2] is “Not Active”.
As to `O=c1[nH]c2ccc(OCCCCN3CCC(c4cccc(Cl)c4Cl)CC3)cc2[nH]1`, the EC50 result in [2] is “Not Active”.
For the molecule `Clc1cccc(N2CCN(CCCCOc3ccc4cn[nH]c4c3)CC2)c1Cl`, the pEC50 in [1] is 7.00. Further, the EC50 entry in [2] is “Not Active”.
The corresponding values for `O=C1CCc2ccc(Oc3ccc(CN4CCN(c5cccc(Cl)c5Cl)CC4)cc3)cc2N1` are 6.30 and “Not Active”.
For `Clc1cccc(C2CCN(CCCCOc3ccc4scnc4c3)CC2)c1Cl`, the inhibition result in assay [7] is “inactive”. In addition, the inhibition entry in assay [8] is “Active”. For the same molecule, the outcome in assay [9] and in assay [10] was inactive. The outcome in [11] and in [12] was Active. In addition, the pEC50 in [3] was 7.10. Moreover, the EC50 entry in assay [2] is reported as “Not Active”. In [6], this molecule showed an Emax of 78%.
Take `CC(C)Oc1ccccc1N1CCN(CCCCOc2ccc3c(c2)NC(=O)CC3)CC1`: the figures for the negative-log EC50 (pEC50) in assay [3] and in [2] were 8.70 and 7.60, respectively. In assay [4], the negative-log Ki (pKi) is 8.51. The molecule also registered an Emax in assay [6] of 63%.
Taken in the same sequence, the figures for `CCOc1cccc(N2CCN(CCCCOc3ccc4c(c3)NC(=O)CC4)CC2)c1` were 8.00, 6.80, 7.68 and 40%.
Regarding `Clc1cccc(N2CCN(CCCOc3ccc4scnc4c3)CC2)c1Cl`, the negative logarithm of the EC50 (pEC50) in assay [3] is 6.90. For the same molecule, the EC50 result in [2] is listed as “Not Active”.
Take `O=C1CCc2ccc(OCCCCN3CCN(c4cccc(Cl)c4Cl)CC3)nc2N1`: the EC50 result in [2] was “Not Active”.
As to `O=C1CCc2ccc(OCCCCN3CCCN(c4cccc(Cl)c4Cl)CC3)nc2N1`, the negative logarithm of the EC50 (pEC50) in [3] is 8.80. Also, in [2], the EC50 result was “Not Active”.
For `Clc1cccc(N2CCCN(CCCCOc3ccc4scnc4c3)CC2)c1Cl`, the EC50 entry in [2] is “Not Active”.
`Clc1cccc(N2CCN(CCCCOc3ccc4scnc4c3)CC2)c1Cl`: the pEC50 in assay [1] is 7.20. In addition, the EC50 result in assay [2] is given as “Not Active”.
Regarding `O=c1[nH]c2ccc(OCCCCN3CCN(c4cccc(Cl)c4Cl)CC3)cc2[nH]1`, the EC50 result in [2] is on record as “Not Active”.
Take `CCOc1ccc(N2CCN(CCCCOc3ccc4c(c3)NC(=O)CC4)CC2)cc1`: the figures for the negative logarithm of the EC50 (pEC50) in [3] and in assay [2] were 7.30 and 6.60, respectively. This molecule gave a pKi in assay [4] of 7.28. Also, the Emax in [6] turned out to be 82%.
Turning to `Clc1cccc(C2CCN(CCCOc3ccc4scnc4c3)CC2)c1Cl`, in assay [3], the pEC50 is 7.30. Besides, the EC50 entry in assay [2] was “Not Active”.
